This assay in a line: Effect of oral hypoestoxide on blood cholesterol and triglyceride levels in a beagle dog (standard colorimetric method on sera). The note with it: 30 mg/kg oral once daily for seven days; for Triglycerides / Cholesterol: dog serum; for Triglycerides: day −1 value 300; for Cholesterol: day −1 value 308. It counts as in vivo. The method, then: In one example, hypoestoxide was administered orally to a 2-year-old female beagle dog at a dose of 30 mg/kg, once daily for seven days. Blood cholesterol and triglyceride levels were determined in sera obtained at days 1, 3, 7 and 14, respectively. Assays were performed by a standard colorimetric method by a commercial laboratory (Antech Diagnostics, Irvine, Calif.).

Take `C=C1C(=O)C[C@H]2C[C@@H]3O[C@@]3(C)CC[C@@H]3O[C@@]3(C)C[C@@H](OC(C)=O)[C@H]1C2(C)C` [hypoestoxide]: for the setting “beagle dog”, the “blood cholesterol and triglyceride levels (effect in words)” value is reported as “significantly lowered”. The Triglycerides came to 296 mg/dL (day 1, normal reference range 29-291); 70 mg/dL (day 3); 33 mg/dL (day 7); 51 mg/dL (day 14). The Cholesterol by setting is: (day 1, normal reference range 92-324) 122 mg/dL; (day 3) 130 mg/dL; (day 7) 124 mg/dL; (day 14) 134 mg/dL.

The values are drawn from patent US20040087553A1, “Hypoestoxides, derivatives and agonists thereof for use in the treatment and prophylaxis of hyperlipidemia” (Paraquest, Inc., priority 2002, published 2004).
